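A five-concentration, 48-hour dose response in 96-well plates underlies each endpoint, interpolated linearly between surrounding concentrations. GI50: concentration for 50% inhibition of growth.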 Active and inactive are the calls of the source. Cut-off read from the data, not from the text of the source: active = GI50 up to about 1.1 µM and inactive = higher.
Assays:
Assay in all cases: growth of human tumour cells (NCI), 48 h
[1] = tested on: 786-0
[2] = tested on: A498
[3] = tested on: A549
[4] = tested on: ACHN
[5] = tested on: BT-549
[6] = tested on: CAKI-1
[7] = tested on: CCRF-CEM
[8] = tested on: COLO 205
[9] = tested on: DU-145
[10] = tested on: EKVX
[11] = tested on: HCC 2998
[12] = tested on: HCT-116
[13] = tested on: HCT-15
[14] = tested on: HL-60
[15] = tested on: HOP-62
[16] = tested on: HOP-92
[17] = tested on: Hs-578T
[18] = tested on: IGROV-1
[19] = tested on: K562
[20] = tested on: KM12
[21] = tested on: M14
[22] = tested on: MCF7
[23] = tested on: MDA-MB-435
[24] = tested on: MOLT-4
[25] = tested on: Malme-3M
[26] = tested on: NCI-H23
[27] = tested on: NCI-H460
[28] = tested on: NCI-H522
[29] = tested on: NCI/ADR-RES
[30] = tested on: OVCAR-3
[31] = tested on: OVCAR-4
[32] = tested on: OVCAR-5
[33] = tested on: OVCAR-8
[34] = tested on: PC-3
[35] = tested on: RXF 393
[36] = tested on: SF-268
[37] = tested on: SF-295
[38] = tested on: SF-539
[39] = tested on: SK-MEL-2
[40] = tested on: SK-MEL-5
[41] = tested on: SK-OV-3
[42] = tested on: SN12C
[43] = tested on: SNB-19
[44] = tested on: SNB-75
[45] = tested on: SW-620
[46] = tested on: T47D
[47] = tested on: TK-10
[48] = tested on: U-251
[49] = tested on: UACC-257
[50] = tested on: UO-31
[51] = tested on: HT-29
[52] = tested on: LOX IMVI
[53] = tested on: MDA-MB-231
[54] = tested on: RPMI-8226
[55] = tested on: SK-MEL-28
[56] = tested on: SR
[57] = tested on: UACC-62
[58] = tested on: MDA-N

N#CC1C(=O)NC2=C(CCOc3c2ccc2ccccc32)C1c1ccc(F)cc1 (stereo unspecified)
GI50 [1]: 17.7 µM (inactive) | GI50 [2]: 19.7 µM (inactive) | GI50 [3]: 25.2 µM (inactive) | GI50 [4]: 13.3 µM (inactive) | GI50 [5]: 60 µM (inactive) | GI50 [6]: 31.5 µM (inactive) | GI50 [7]: 28.4 µM (inactive) | GI50 [8]: 61 µM (inactive) | GI50 [9]: 29.1 µM (inactive) | GI50 [10]: 36 µM (inactive) | GI50 [11]: 23.9 µM (inactive) | GI50 [12]: 14 µM (inactive) | GI50 [13]: 38.5 µM | GI50 [14]: > 100 µM (inactive) | GI50 [15]: 18.5 µM (inactive) | GI50 [16]: 7.46 µM (inactive) | GI50 [17]: 16.2 µM (inactive) | GI50 [18]: 17.3 µM (inactive) | GI50 [19]: > 100 µM (inactive) | GI50 [20]: 67.5 µM (inactive) | GI50 [21]: 26.1 µM (inactive) | GI50 [22]: 36.7 µM (inactive) | GI50 [23]: 40.9 µM (inactive) | GI50 [24]: 37.6 µM (inactive) | GI50 [25]: 27.8 µM (inactive) | GI50 [26]: 23.4 µM (inactive) | GI50 [27]: 29.9 µM (inactive) | GI50 [28]: 37.1 µM (inactive) | GI50 [29]: 14.9 µM (inactive) | GI50 [30]: 21.1 µM (inactive) | GI50 [31]: 31.8 µM (inactive) | GI50 [32]: 23.5 µM (inactive) | GI50 [33]: 33.3 µM (inactive) | GI50 [34]: 19.3 µM (inactive) | GI50 [35]: 15 µM (inactive) | GI50 [36]: 22.4 µM (inactive) | GI50 [37]: 20.4 µM (inactive) | GI50 [38]: 44.8 µM (inactive) | GI50 [39]: 29.8 µM (inactive) | GI50 [40]: 21.5 µM (inactive) | GI50 [41]: 24.8 µM (inactive) | GI50 [42]: 10.8 µM (inactive) | GI50 [43]: 20 µM (inactive) | GI50 [44]: 20.2 µM (inactive) | GI50 [45]: 31 µM (inactive) | GI50 [46]: 27.4 µM (inactive) | GI50 [47]: 23.4 µM (inactive) | GI50 [48]: 12.3 µM (inactive) | GI50 [49]: > 100 µM (inactive) | GI50 [50]: 12.1 µM (inactive)

O=c1sc(Nc2ccc3ccccc3c2Cl)nc2ccccc12
GI50 [1]: > 100 µM (inactive) | GI50 [3]: > 100 µM (inactive) | GI50 [4]: > 100 µM (inactive) | GI50 [5]: > 100 µM (inactive) | GI50 [6]: 35.9 µM (inactive) | GI50 [7]: > 100 µM (inactive) | GI50 [8]: > 100 µM (inactive) | GI50 [9]: > 100 µM (inactive) | GI50 [10]: > 100 µM (inactive) | GI50 [11]: > 100 µM (inactive) | GI50 [12]: > 100 µM (inactive) | GI50 [13]: > 100 µM | GI50 [14]: 26.5 µM (inactive) | GI50 [15]: > 100 µM (inactive) | GI50 [16]: 35.9 µM (inactive) | GI50 [51]: > 100 µM (inactive) | GI50 [17]: 57.1 µM (inactive) | GI50 [18]: > 100 µM (inactive) | GI50 [19]: > 100 µM (inactive) | GI50 [20]: > 100 µM (inactive) | GI50 [52]: > 100 µM (inactive) | GI50 [22]: > 100 µM (inactive) | GI50 [53]: > 100 µM (inactive) | GI50 [23]: 37.1 µM (inactive) | GI50 [25]: > 100 µM (inactive) | GI50 [26]: > 100 µM (inactive) | GI50 [27]: 60.4 µM (inactive) | GI50 [28]: > 100 µM (inactive) | GI50 [29]: > 100 µM (inactive) | GI50 [30]: > 100 µM (inactive) | GI50 [31]: > 100 µM (inactive) | GI50 [32]: > 100 µM (inactive) | GI50 [34]: > 100 µM (inactive) | GI50 [54]: > 100 µM (inactive) | GI50 [35]: 72.1 µM (inactive) | GI50 [36]: > 100 µM (inactive) | GI50 [37]: > 100 µM (inactive) | GI50 [38]: 73.8 µM (inactive) | GI50 [55]: > 100 µM (inactive) | GI50 [39]: > 100 µM (inactive) | GI50 [40]: > 100 µM (inactive) | GI50 [41]: > 100 µM (inactive) | GI50 [42]: > 100 µM (inactive) | GI50 [43]: > 100 µM (inactive) | GI50 [44]: 49.3 µM (inactive) | GI50 [56]: 7.08 µM (inactive) | GI50 [45]: > 100 µM (inactive) | GI50 [46]: > 100 µM (inactive) | GI50 [47]: > 100 µM (inactive) | GI50 [48]: > 100 µM (inactive) | GI50 [49]: > 100 µM (inactive) | GI50 [57]: > 100 µM (inactive) | GI50 [50]: > 100 µM (inactive)

NNC(=S)NCCNC(=S)NN
GI50 [1]: > 100 µM (inactive) | GI50 [3]: > 100 µM (inactive) | GI50 [4]: > 100 µM (inactive) | GI50 [5]: > 100 µM (inactive) | GI50 [6]: > 100 µM (inactive) | GI50 [7]: > 100 µM (inactive) | GI50 [8]: > 100 µM (inactive) | GI50 [9]: > 100 µM (inactive) | GI50 [10]: > 100 µM (inactive) | GI50 [11]: > 100 µM (inactive) | GI50 [12]: > 100 µM (inactive) | GI50 [14]: > 100 µM (inactive) | GI50 [15]: > 100 µM (inactive) | GI50 [51]: > 100 µM (inactive) | GI50 [17]: > 100 µM (inactive) | GI50 [18]: > 100 µM (inactive) | GI50 [20]: > 100 µM (inactive) | GI50 [52]: > 100 µM (inactive) | GI50 [21]: > 100 µM (inactive) | GI50 [53]: 30.3 µM (inactive) | GI50 [23]: > 100 µM (inactive) | GI50 [58]: > 100 µM (inactive) | GI50 [24]: > 100 µM (inactive) | GI50 [25]: > 100 µM (inactive) | GI50 [26]: > 100 µM (inactive) | GI50 [27]: > 100 µM (inactive) | GI50 [28]: > 100 µM (inactive) | GI50 [30]: > 100 µM (inactive) | GI50 [31]: > 100 µM (inactive) | GI50 [32]: > 100 µM (inactive) | GI50 [34]: > 100 µM (inactive) | GI50 [54]: > 100 µM (inactive) | GI50 [36]: > 100 µM (inactive) | GI50 [37]: > 100 µM (inactive) | GI50 [55]: > 100 µM (inactive) | GI50 [39]: > 100 µM (inactive) | GI50 [40]: > 100 µM (inactive) | GI50 [41]: > 100 µM (inactive) | GI50 [42]: > 100 µM (inactive) | GI50 [43]: > 100 µM (inactive) | GI50 [44]: > 100 µM (inactive) | GI50 [56]: > 100 µM (inactive) | GI50 [45]: > 100 µM (inactive) | GI50 [46]: > 100 µM (inactive) | GI50 [48]: > 100 µM (inactive) | GI50 [49]: > 100 µM (inactive) | GI50 [57]: > 100 µM (inactive) | GI50 [50]: > 100 µM (inactive)

From ChEMBL document CHEMBL1201862, “PubChem BioAssay data set” (2004)
